# Patent US8445504B2, “Tricyclic pyrazolopyrimidine derivatives” (Daiichi Sankyo Company, Limited, priority 2009, dated 2013)
# What was measured:
# [1] = target: T1, recombinant yeast Hsp90 protein (rHsp90) (Saccharomyces cerevisiae, UniProt P02829); assay: Hsp90 ATPase assay; assay type: biochemical; conditions: at a concentration of 2 μM; 100 μM ATP, 37° C., two hours; read-out: ATPase inhibitory activity
# T1 construct: made in house; host or cells: Escherichia coli
# Description: An Hsp90 ATPase assay was performed using a recombinant yeast Hsp90 protein (hereinafter called rHsp90). Yeast Hsp90 DNA was cloned from a yeast genomic DNA library according to a conventional method. The cloned yeast Hsp90 DNA was incorporated into a plasmid for expression in Escherichia coli, and the plasmid was expressed in Escherichia coli to obtain rHsp90.
# The test compound was dissolved in DMSO to 10 mM. The dissolved solution was diluted with DMSO to two concentrations, 1 mM and 0.2 mM. Each diluted solution was further 10-fold diluted with an assay buffer (100 mM Tris, pH 7.4, 20 mM KCl, 6 mM MgCl2) (concentration of each test compound solution: 100 μM and 20 μM; DMSO concentration: 10%).
# rHsp90 was dissolved in a TE buffer (20 mM Tris, pH 7.4, 1 mM EDTA) to a concentration of 2.531 mg/mL. The solution was diluted with an assay buffer to 125 μg/mL and dispensed to a 96-well assay plate at 40 μL per well (final concentration: 100 μg/mL).
# The test compound solution was dispensed at 5 μL per well, and then the solutions in the respective wells were mixed using a plate mixer. 100 mM ATP (Sigma, Catalog No. A-7699) was diluted with an assay buffer to 1 mM and dispensed at 5 μL per well (final concentration: 100 μM). The solutions in the respective wells were mixed using a plate mixer, and then the assay plate was allowed to stand in an incubator set at 37° C. for two hours.
# BIOMOL GREEN Reagent (BIOMOL, Catalog No. AK-111) was dispensed at 100 μL per well, and the reaction was terminated. The solutions in the respective wells were mixed using a plate mixer, and then 34% sodium citrate was dispensed at 10 μL per well. The solutions in the respective wells were mixed using a plate mixer, and then the assay plate was left to stand at room temperature for 30 minutes. The absorbance at 650 nm of each well was measured using SpectramaxPLUS (Molecular Devices).
# The ratio of the absorbance of the test compound-added group to the absorbance of the test compound-free group (T/C value) was determined by the following calculation formula, based on the assumption that the absorbance of the well to which the test compound and rHsp90 were added was A, the absorbance of the well to which only rHsp90 was added was B, and the absorbance of the well to which neither the test compound nor rHsp90 was added was C. The calculation was carried out using Softmax Pro 4.6 (Molecular Devices). Furthermore, an inhibition rate (%) was calculated using the following calculation formula: T/C=(A−C)/(B−C)
# [2] = tested on: human breast cancer cell line SK-BR-3; assay: Cell growth inhibition assay (MTT), SK-BR-3; assay type: cell-based; conditions: SK-BR-3, 72 hours
# Description: (§1) A cell growth inhibition assay was performed using two types of cells (human breast cancer cell line SK-BR-3 and human lung cancer cell line NCI-H460).
# (§2) Cells of each type were suspended in a medium and seeded into a 96-well multi-well plate at 2000 cells/150 μL/well in the case of SK-BR-3 and at 500 cells/150 μL/well in the case of NCI-H460. The test compound was dissolved in DMSO, and this was diluted with medium to prepare a sample solution (DMSO concentration: 0.5% or less). On the day following the seeding, 50 μL of DMSO-containing medium to which the test compound was not added (hereinafter called DMSO diluted solution; DMSO concentration: 0.5% or less) or 50 μL of the sample solution was further added to the cells. An MTT assay was performed immediately after and 72 hours after adding the sample solution or the DMSO diluted solution to the cells. The MTT assay was performed as follows.
# (§3) 5 mg/mL of an MTT (3-(4,5-dimethylthiazol-2-yl)-2,5-diphenyltetrazolium bromide) solution was added at 20 μL per well. Thereafter, the plate was incubated at 37° C. in 5% CO2 for four hours. The plate was centrifuged at 1200 rpm for five minutes, and then the culture supernatant was removed by suction using a dispenser. DMSO was added at 150 μL per well, and the generated formazan was dissolved. The plate was stirred using a plate mixer to uniformly color the respective wells. The absorbance of each well was measured using a plate reader at an OD of 540 nm with a reference of 660 nm.
# (§4) T/C (%) for each concentration was determined by the following calculation formula and a dose-response curve was drawn to calculate the 50% growth inhibitory concentration (GI50 value), based on the assumption that the OD value measured immediately after adding the sample solution was S, the OD value measured 72 hours after adding the sample solution was T, and the OD value measured 72 hours after adding the DMSO diluted solution was C. T/C (%)=(T−S)/(C−S)×100 The results are shown below.
# [3] = tested on: human lung cancer cell line NCI-H460; assay: Cell growth inhibition assay (MTT), NCI-H460; assay type: cell-based; conditions: NCI-H460, 72 hours
# Description: as §1, §2, §3, §4
# CYP3A4 = CYP3A4 (Homo sapiens, UniProt P08684); assay: in vitro; conditions: microsomes, pH 7.4
# Description: Appropriate amounts of such test compound, substrate, target to be measured, and positive control were weighed. They were dissolved in DMSO, and were then diluted with acetonitrile, as appropriate.
# 180 μl of a reaction solution prepared by mixing the following (1) to (5) had previously been warmed at 37° C. for 10 minutes:
# (1) Potassium phosphate buffer (pH 7.4; final concentration: 50 mM)
# (3) Midazolam (final concentration: 2.5 μM)
# (5) Human hepatic microsome (final concentration: 0.05 mg-P/ml)
# 20 μl of the NADPH Regeneration System (solution A/solution B/purified water=5/1/4) was added to this reaction solution, and the reaction was initiated. The mixture was incubated for 10 minutes. Thereafter, 50 μl of the reaction solution was sampled, and it was then added to 200 μl of acetonitrile, followed by the termination of the reaction. Further, 50 μl of an acetonitrile solution containing an internal standard substance was added to the reaction solution.
# In order to remove proteins from this sample, the reaction solution was transferred to a 96-Well Collection Plate (Waters) using Captiva (registered trademark) (GL Sciences). This sample solution was defined as a sample used for the assay of LC-MS/MS.
# Samples of 1′-Hydroxymidazolam having known concentrations (final concentrations: 0 to 5 μM; total 5 points) were prepared, separately. A calibration curve used for assay was prepared, and the concentration of 1′-Hydroxymidazolam in the sample was assayed. This reaction was carried out in a duplicated manner.
# The amount of 1′-Hydroxymidazolam generated in the negative control was defined as 100%, and the ratio of the amount of this compound generated by addition of each compound was then calculated. Thus, the inhibition value of CYP3A4 was obtained.
# Sequence of CYP3A4 (P08684 whole entry): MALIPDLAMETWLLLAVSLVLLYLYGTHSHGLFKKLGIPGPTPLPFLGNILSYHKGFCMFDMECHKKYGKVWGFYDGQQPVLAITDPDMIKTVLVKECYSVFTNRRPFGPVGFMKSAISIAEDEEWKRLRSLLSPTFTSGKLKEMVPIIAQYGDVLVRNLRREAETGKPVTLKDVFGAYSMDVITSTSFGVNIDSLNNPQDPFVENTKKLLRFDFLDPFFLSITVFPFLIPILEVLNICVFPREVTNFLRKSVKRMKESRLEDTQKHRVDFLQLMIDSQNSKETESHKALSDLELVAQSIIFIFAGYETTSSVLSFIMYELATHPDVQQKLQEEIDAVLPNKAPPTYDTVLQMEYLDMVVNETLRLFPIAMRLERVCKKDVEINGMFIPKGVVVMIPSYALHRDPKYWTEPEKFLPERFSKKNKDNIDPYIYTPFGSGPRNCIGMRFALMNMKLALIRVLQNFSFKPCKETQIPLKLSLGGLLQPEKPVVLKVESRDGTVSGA
# T1 sequence (P02829 whole entry): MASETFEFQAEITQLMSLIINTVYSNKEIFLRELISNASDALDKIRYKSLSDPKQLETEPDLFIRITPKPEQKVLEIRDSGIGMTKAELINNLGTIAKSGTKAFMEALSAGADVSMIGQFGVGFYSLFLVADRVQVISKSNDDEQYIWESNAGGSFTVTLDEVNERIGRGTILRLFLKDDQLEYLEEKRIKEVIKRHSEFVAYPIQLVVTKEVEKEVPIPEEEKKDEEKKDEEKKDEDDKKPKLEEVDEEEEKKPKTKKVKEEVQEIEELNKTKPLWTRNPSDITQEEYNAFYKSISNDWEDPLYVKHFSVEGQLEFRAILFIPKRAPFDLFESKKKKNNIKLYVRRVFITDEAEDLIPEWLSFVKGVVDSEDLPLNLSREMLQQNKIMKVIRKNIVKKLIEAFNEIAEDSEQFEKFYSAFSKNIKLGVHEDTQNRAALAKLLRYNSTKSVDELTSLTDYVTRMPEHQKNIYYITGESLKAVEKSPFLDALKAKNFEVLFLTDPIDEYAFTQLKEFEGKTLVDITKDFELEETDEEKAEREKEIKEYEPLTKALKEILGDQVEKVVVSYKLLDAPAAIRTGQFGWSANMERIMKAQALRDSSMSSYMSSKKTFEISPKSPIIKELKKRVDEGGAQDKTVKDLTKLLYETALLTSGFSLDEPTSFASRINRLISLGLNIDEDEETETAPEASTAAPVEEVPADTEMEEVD
Compound,inhibition at 2 µM [1],GI50 [2],GI50 [3],"inhibition at 10 min, 10 μM (CYP3A4)"
"COc1ccnc(Cn2nc3c4c(nc(N)nc42)SCC(C(=O)NCC(F)F)=C3)c1Cl [Compound 6, 4-Amino-2-[(3-chloro-4-methoxypyridin-2-yl)methyl]-N-(2,2-difluoroethyl)-2,7-dihydro-6-thia-1,2,3,5-tetraazabenzo[cd]azulen-8-carboxamide]",≥ 50%,45 nM,110 nM,-18%
"COc1c(C)cnc(Cn2nc3c4c(nc(N)nc42)SCC(CC(N)=O)=C3)c1Br [Compound 4, 2-{4-Amino-2-[(3-bromo-4-methoxy-5-methylpyridin-2-yl)methyl]-2,7-dihydro-6-thia-1,2,3,5-tetraazabenzo[cd]azulen-8-yl}acetamide mesilate]",≥ 50%,11 nM,22 nM,43%
"CNC(=O)CC1=Cc2nn(Cc3ncc(C)c(OC)c3Br)c3nc(N)nc(c23)SC1 [Compound 3, 2-{4-Amino-2-[(3-bromo-4-methoxy-5-methylpyridin-2-yl)methyl]-2,7-dihydro-6-thia-1,2,3,5-tetraazabenzo[cd]azulen-8-yl}-N-methylacetamide]",≥ 50%,14 nM,30 nM,5%
"CNC(=O)CC1=Cc2nn(Cc3ncc(F)c(OC)c3C)c3nc(N)nc(c23)SC1 [Compound 2, 2-{4-Amino-2-[(5-fluoro-4-methoxy-3-methylpyridin-2-yl)methyl]-2,7-dihydro-6-thia-1,2,3,5-tetraazabenzo-[cd]azulen-8-yl}-N-methylacetamide]",≥ 50%,39 nM,90 nM,58%
"COc1c(C)cnc(Cn2nc3c4c(nc(N)nc42)SCC(CC(=O)NCCF)=C3)c1Cl [Compound 5, 2-{4-Amino-2-[(3-chloro-4-methoxy-5-methylpyridin-2-yl)methyl]-2,7-dihydro-6-thia-1,2,3,5-tetraazabenzo[cd]azulen-8-yl}-N-(2-fluoroethyl)acetamide]",≥ 50%,16 nM,36 nM,66%
"CNC(=O)CC1=Cc2nn(Cc3ncc(C)c(OC)c3Cl)c3nc(N)nc(c23)SC1 [Compound 1, 2-{4-Amino-2-[(3-chloro-4-methoxy-5-methylpyridin-2-yl)methyl]-2,7-dihydro-6-thia-1,2,3,5-tetraazabenzo[cd]azulen-8-yl}-N-methylacetamide]",≥ 50%,13 nM,26 nM,15%
